Patent US20240360134A1, “PYRAZOLOPYRIMIDINES AND THEIR USES AS PDGFR INHIBITORS” (priority 2021, published 2024)
Like-named read-outs stand apart in the source and are kept apart here.

Key:
[1] = molecular target: Tb-labeled inactive PDGFRβ (Homo sapiens (Human), UniProt P09619); test: biochemical; type: binding
[2] = molecular target: His6-TEV-PDGFRβ (557-1016) (Homo sapiens (Human), UniProt P09619); test: PDGFRβ HTRF Assay; type: biochemical
VEGFR2, unphosphorylated = VEGFR2, unphosphorylated (Homo sapiens (Human), UniProt P35968); test: VEGFR ADP GLO assay; type: biochemical; conditions: 5 nM VEGFR2, 1.2 mM ATP, 1 mg/mL Srctide, 180 min
Procedure, shortened: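 Luminescent ADP detection after a 180-min room-temperature reaction of srctide plus ATP (2 mg/mL and 2.4 mM in 2× mix) in pH 7.5 HEPES buffer with DTT, Pluronic and ovalbumin. Compounds, 11 points from 10 µM, first pre-incubated 30 min with enzyme (2× mix 10 nM). IC50s fitted after scaling between DMSO and 1 µM TAK-593 controls.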

PDGFRβ = PDGFRβ (Rattus norvegicus (Rat), UniProt Q05030); test: PDGFRβ Cellular Assay (PDGFRb P-Y751 HTRF, PDGF-BB stimulated A10 cells); type: cell-based
Procedure, shortened: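 Rat A10 cells plated overnight were treated with compound for 3 h, stimulated with rat PDGF-BB (working stock 100 ng/mL in 10% FBS medium) for 10 min, then lysed.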

[3] = 800 μM ATP, 0.5 μM TK-substrate biotin peptide, 30 min pre-incubation, 3 hours reaction, read-out: PDGFR HTRF IC50
[4] = A10 cells, 3 hours compound, 15 ng/mL PDGFbb for 10 minutes, read-out: PDGFR Cellular IC50

Sequence of VEGFR2, unphosphorylated (P35968 whole entry, looked up): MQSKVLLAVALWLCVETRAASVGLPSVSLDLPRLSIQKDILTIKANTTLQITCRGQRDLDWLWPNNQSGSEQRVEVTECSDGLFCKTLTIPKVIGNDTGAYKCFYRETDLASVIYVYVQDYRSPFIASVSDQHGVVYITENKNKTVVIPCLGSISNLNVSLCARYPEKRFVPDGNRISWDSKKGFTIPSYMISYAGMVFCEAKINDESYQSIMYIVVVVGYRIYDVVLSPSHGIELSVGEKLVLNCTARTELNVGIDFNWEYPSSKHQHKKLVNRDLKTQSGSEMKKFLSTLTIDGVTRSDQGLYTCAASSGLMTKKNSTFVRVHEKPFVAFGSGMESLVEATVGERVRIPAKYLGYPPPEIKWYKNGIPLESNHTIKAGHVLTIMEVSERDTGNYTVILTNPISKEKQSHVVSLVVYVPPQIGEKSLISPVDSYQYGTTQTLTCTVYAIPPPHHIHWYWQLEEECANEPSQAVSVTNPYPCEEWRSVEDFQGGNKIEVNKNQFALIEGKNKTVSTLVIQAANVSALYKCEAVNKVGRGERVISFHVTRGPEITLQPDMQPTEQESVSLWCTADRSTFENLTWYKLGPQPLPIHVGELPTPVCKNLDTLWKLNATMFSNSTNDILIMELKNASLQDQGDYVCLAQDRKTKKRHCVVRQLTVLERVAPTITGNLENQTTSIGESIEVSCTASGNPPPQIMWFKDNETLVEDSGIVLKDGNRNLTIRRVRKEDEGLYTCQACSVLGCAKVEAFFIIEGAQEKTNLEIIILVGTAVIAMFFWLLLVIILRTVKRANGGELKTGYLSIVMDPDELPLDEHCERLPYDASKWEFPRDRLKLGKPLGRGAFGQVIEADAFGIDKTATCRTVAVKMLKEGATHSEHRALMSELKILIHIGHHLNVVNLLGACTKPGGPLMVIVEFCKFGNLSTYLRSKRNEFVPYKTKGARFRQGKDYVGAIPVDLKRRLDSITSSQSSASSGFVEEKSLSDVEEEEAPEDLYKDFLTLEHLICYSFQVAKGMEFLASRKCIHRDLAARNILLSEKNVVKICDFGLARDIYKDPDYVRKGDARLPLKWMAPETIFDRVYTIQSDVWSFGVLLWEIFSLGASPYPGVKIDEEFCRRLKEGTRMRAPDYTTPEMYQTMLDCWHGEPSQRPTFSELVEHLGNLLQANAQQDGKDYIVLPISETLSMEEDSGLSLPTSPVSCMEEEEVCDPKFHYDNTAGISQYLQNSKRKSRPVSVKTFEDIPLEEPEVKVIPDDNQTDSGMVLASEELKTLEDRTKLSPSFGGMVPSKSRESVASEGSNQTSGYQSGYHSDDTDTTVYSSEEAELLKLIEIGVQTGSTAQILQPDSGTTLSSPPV
Sequence of Tb-labeled inactive PDGFRβ (P09619 whole entry, looked up): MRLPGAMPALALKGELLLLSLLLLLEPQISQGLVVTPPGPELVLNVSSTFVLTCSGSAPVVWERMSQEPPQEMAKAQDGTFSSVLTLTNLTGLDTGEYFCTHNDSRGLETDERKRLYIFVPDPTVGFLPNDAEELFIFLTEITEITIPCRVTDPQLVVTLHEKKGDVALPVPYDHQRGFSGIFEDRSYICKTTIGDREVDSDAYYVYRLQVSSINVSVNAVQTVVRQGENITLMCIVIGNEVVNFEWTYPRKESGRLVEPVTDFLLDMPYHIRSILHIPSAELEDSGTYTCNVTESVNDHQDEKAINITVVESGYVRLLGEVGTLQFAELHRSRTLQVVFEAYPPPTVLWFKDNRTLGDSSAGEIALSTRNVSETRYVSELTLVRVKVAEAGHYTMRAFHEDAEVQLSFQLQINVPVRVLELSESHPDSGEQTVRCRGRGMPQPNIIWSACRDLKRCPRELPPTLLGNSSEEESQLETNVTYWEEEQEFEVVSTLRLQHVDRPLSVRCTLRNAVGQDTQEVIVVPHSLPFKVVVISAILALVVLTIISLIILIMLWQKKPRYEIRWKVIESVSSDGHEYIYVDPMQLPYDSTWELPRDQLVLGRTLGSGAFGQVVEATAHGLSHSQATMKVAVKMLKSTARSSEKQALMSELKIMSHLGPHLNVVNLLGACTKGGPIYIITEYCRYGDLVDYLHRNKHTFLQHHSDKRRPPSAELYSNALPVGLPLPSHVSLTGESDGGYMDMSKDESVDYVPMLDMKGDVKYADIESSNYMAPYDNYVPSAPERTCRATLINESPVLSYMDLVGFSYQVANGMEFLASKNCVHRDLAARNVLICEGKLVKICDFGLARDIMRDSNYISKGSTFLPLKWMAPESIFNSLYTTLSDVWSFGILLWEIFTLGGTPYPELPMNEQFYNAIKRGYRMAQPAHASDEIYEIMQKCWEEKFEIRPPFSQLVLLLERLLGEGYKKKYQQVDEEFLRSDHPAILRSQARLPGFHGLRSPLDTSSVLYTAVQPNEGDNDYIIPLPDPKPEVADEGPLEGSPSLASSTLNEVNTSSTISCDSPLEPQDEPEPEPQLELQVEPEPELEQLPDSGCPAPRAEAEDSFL
Sequence of His6-TEV-PDGFRβ (557-1016) (P09619 whole entry, looked up): as above
Sequence of PDGFRβ (Q05030 whole entry, looked up): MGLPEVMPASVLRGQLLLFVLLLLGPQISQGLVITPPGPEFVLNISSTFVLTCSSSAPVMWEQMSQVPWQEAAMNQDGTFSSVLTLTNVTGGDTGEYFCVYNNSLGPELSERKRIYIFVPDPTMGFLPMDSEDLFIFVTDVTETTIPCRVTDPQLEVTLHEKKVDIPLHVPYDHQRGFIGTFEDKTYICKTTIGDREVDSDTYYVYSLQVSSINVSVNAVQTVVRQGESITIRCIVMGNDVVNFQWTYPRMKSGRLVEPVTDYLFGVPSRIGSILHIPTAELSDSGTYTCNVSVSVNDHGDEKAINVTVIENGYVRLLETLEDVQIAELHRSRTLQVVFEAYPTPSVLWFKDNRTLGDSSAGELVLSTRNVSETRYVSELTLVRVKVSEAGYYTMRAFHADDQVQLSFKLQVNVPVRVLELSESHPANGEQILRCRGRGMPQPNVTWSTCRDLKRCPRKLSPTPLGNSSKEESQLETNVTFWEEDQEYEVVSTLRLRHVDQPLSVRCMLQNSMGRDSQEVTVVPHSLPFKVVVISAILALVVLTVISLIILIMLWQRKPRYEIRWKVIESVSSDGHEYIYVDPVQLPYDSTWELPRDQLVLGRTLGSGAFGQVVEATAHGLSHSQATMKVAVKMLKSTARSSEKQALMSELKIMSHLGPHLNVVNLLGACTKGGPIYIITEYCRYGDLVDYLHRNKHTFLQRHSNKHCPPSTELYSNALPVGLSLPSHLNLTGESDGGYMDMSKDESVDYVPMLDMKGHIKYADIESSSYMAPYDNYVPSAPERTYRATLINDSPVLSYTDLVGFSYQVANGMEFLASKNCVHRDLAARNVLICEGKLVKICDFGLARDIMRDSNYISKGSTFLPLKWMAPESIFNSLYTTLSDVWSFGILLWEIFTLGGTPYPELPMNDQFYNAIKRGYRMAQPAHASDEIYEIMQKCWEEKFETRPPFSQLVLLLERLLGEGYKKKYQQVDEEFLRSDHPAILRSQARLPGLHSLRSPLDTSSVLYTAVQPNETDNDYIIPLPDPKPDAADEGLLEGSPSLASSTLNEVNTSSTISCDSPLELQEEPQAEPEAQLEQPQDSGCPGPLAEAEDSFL

SMILES	IC50 ([1]; read-out: PDGFR Lantha IC50) [nM]	IC50 [2, 3] [nM]	IC50 (VEGFR2, unphosphorylated) [nM]	IC50 (PDGFRβ; [4]) [nM]	IC50 [1] [nM]	IC50 [2] [nM]	IC50 (PDGFRβ) [nM]
CC(=O)Nc1cc(Nc2ncc3c(Nc4cc(C(=O)NCCN5CCCC5(C)C)cnc4C)nn(C)c3n2)ccn1 [Example 100, 5-((6-((2-acetamidopyridin-4-yl)amino)-1-methyl-1H-pyrazolo[3,4-d]pyrimidin-3-yl)amino)-N-(2-(2,2-dimethylpyrrolidin-1-yl)ethyl)-6-methylnicotinamide]	2.8	0.39	5420	93.1	–	–	–
Cc1ncc(C(=O)NCCN2CCCC2(C)C)cc1Nc1nn(C)c2nc(Nc3ccnc(N4CCOCC4)c3)ncc12 [Example 101, N-(2-(2,2-dimethylpyrrolidin-1-yl)ethyl)-6-methyl-5-((1-methyl-6-((2-morpholinopyridin-4-yl)amino)-1H-pyrazolo[3,4-d]pyrimidin-3-yl)amino)nicotinamide]	2.2	0.38	> 7500	15.5	–	–	–
Cc1ncc(C(=O)NCCN2CCCC2(C)C)cc1Nc1nn(C)c2nc(Nc3ccc(N4CCOCC4)nc3)ncc12 [Example 102, N-(2-(2,2-dimethylpyrrolidin-1-yl)ethyl)-6-methyl-5-((1-methyl-6-((6-morpholinopyridin-3-yl)amino)-1H-pyrazolo[3,4-d]pyrimidin-3-yl)amino)nicotinamide]	3.8	0.37	> 7500	7.6	–	–	–
Cc1ncc(C(=O)NCCN2CCCC2(C)C)cc1Nc1nn(C)c2nc(Nc3ccnc(N4CCN(CCO)CC4)c3)ncc12 [Example 103, N-(2-(2,2-dimethylpyrrolidin-1-yl)ethyl)-5-((6-((2-(4-(2-hydroxyethyl)piperazin-1-yl)pyridin-4-yl)amino)-1-methyl-1H-pyrazolo[3,4-d]pyrimidin-3-yl)amino)-6-methylnicotinamide]	4.8	0.55	> 7500	443	–	–	–
Cc1ncc(C(=O)NCCC2CCCCC2)cc1Nc1nn(C)c2nc(Nc3ccc(CC(=O)O)cc3)ncc12 [Example 104, 2-(4-((3-((5-((2-cyclohexylethyl)carbamoyl)-2-methylpyridin-3-yl)amino)-1-methyl-1H-pyrazolo[3,4-d]pyrimidin-6-yl)amino)phenyl)acetic acid]	2.4	0.44	77.2	2360	–	–	–
Cc1ncc(C(=O)NCCC2CCCCC2)cc1Nc1nn(C)c2nc(Nc3ccc(CC#N)nc3)ncc12 [Example 105, 5-((6-((6-(cyanomethyl)pyridin-3-yl)amino)-1-methyl-1H-pyrazolo[3,4-d]pyrimidin-3-yl)amino)-N-(2-cyclohexylethyl)-6-methylnicotinamide]	2.7	0.59	3360	9.7	–	–	–
Cc1ncc(C(=O)NCCC2CCCCC2)cc1Nc1nn(C)c2nc(Nc3ccc(CC(=O)O)nc3)ncc12 [Example 106, 2-(5-((3-((5-((2-cyclohexylethyl)carbamoyl)-2-methylpyridin-3-yl)amino)-1-methyl-1H-pyrazolo[3,4-d]pyrimidin-6-yl)amino)pyridin-2-yl)acetic acid]	–	–	915	–	3.6	0.76	12.6
Cc1ncc(C(=O)NCCC2CCCCC2)cc1Nc1nn(C)c2nc(Nc3cncc(CC(=O)O)c3)ncc12 [Example 107, 2-(5-((3-((5-((2-cyclohexylethyl)carbamoyl)-2-methylpyridin-3-yl)amino)-1-methyl-1H-pyrazolo[3,4-d]pyrimidin-6-yl)amino)pyridin-3-yl)acetic acid]	2.8	0.55	11	> 2000	–	–	–
Cc1ncc(C(=O)NCCC2CCCCC2)cc1Nc1nn(C)c2nc(NCCC3CCCCC3)ncc12 [Example 108, N-(2-cyclohexylethyl)-5-((6-((2-cyclohexylethyl)amino)-1-methyl-1H-pyrazolo[3,4-d]pyrimidin-3-yl)amino)-6-methylnicotinamide]	> 3000	172	> 7500	2270	–	–	–
Cc1ncc(C(=O)NCCC2CCCCC2)cc1Nc1nn(C)c2nc(Nc3ccc(N4CCNCC4)nc3)ncc12 [Example 109, N-(2-cyclohexylethyl)-6-methyl-5-((1-methyl-6-((6-(piperazin-1-yl)pyridin-3-yl)amino)-1H-pyrazolo[3,4-d]pyrimidin-3-yl)amino)nicotinamide]	4	0.78	167	127	–	–	–
Cc1ncc(C(=O)NCCC2CCCCC2)cc1Nc1nn(C)c2nc(Nc3ccnc(N4CCN(CCO)CC4)c3)ncc12 [Example 110, N-(2-cyclohexylethyl)-5-((6-((2-(4-(2-hydroxyethyl)piperazin-1-yl)pyridin-4-yl)amino)-1-methyl-1H-pyrazolo[3,4-d]pyrimidin-3-yl)amino)-6-methylnicotinamide]	3.9	0.77	143	108	–	–	–
Cc1ncc(C(=O)NCCN2CCCC2(C)C)cc1Nc1nn(C)c2nc(Nc3ccnc(N4CCC(CCO)CC4)c3)ncc12 [Example 111, N-(2-(2,2-dimethylpyrrolidin-1-yl)ethyl)-5-((6-((2-(4-(2-hydroxyethyl)piperidin-1-yl)pyridin-4-yl)amino)-1-methyl-1H-pyrazolo[3,4-d]pyrimidin-3-yl)amino)-6-methylnicotinamide]	5.1	0.51	> 7500	106	–	–	–
Cc1ncc(C(=O)NCCN2C[C@H](C)O[C@@H](C)C2)cc1Nc1nn(C)c2nc(Nc3ccnc(N4CCC(CCO)CC4)c3)ncc12 [Example 112, N-(2-((2S,6S)-2,6-dimethylmorpholino)ethyl)-5-((6-((2-(4-(2-hydroxyethyl)piperidin-1-yl)pyridin-4-yl)amino)-1-methyl-1H-pyrazolo[3,4-d]pyrimidin-3-yl)amino)-6-methylnicotinamide]	4.5	0.57	> 7500	84.4	–	–	–
CC[C@@H]1CN(CCNC(=O)c2cnc(C)c(Nc3nn(C)c4nc(Nc5ccnc(N6CCC(CCO)CC6)c5)ncc34)c2)CCO1 [Example 113, (R)—N-(2-(2-ethylmorpholino)ethyl)-5-((6-((2-(4-(2-hydroxyethyl)piperidin-1-yl)pyridin-4-yl)amino)-1-methyl-1H-pyrazolo[3,4-d]pyrimidin-3-yl)amino)-6-methylnicotinamide]	6.8	0.94	> 7500	116	–	–	–
Cc1ncc(C(=O)NCCN2C[C@H](C)O[C@@H](C)C2)cc1Nc1nn(C)c2nc(Nc3cncnc3)ncc12 [Example 114, N-(2-((2S,6S)-2,6-dimethylmorpholino)ethyl)-6-methyl-5-((1-methyl-6-(pyrimidin-5-ylamino)-1H-pyrazolo[3,4-d]pyrimidin-3-yl)amino)nicotinamide]	9.1	0.88	> 7500	72.9	–	–	–
Cc1ncc(C(=O)NCCN2C[C@H](C)O[C@@H](C)C2)cc1Nc1nn(C)c2nc(Nc3ccncc3)ncc12 [Example 115, N-(2-((2S,6S)-2,6-dimethylmorpholino)ethyl)-6-methyl-5-((1-methyl-6-(pyridin-4-ylamino)-1H-pyrazolo[3,4-d]pyrimidin-3-yl)amino)nicotinamide]	3.9	0.48	> 7500	20.6	–	–	–
